These results are taken from patent publication US5356921A, “Imidazolylphenol compounds, pharmaceutical compositions containing them, and processes for preparing such compounds and compositions” (Gruenenthal GmbH, priority 1992, dated 1994).

pIC50: −log10 of the molar value.

In one assay the target is T1, thromboxane synthase (Homo sapiens, UniProt P24557).
T1 construct: human thrombocytes were isolated from platelet-rich plasma; endogenous in cells; host or cells: human thrombocytes (platelets), intact
T1 sequence (P24557 1-533): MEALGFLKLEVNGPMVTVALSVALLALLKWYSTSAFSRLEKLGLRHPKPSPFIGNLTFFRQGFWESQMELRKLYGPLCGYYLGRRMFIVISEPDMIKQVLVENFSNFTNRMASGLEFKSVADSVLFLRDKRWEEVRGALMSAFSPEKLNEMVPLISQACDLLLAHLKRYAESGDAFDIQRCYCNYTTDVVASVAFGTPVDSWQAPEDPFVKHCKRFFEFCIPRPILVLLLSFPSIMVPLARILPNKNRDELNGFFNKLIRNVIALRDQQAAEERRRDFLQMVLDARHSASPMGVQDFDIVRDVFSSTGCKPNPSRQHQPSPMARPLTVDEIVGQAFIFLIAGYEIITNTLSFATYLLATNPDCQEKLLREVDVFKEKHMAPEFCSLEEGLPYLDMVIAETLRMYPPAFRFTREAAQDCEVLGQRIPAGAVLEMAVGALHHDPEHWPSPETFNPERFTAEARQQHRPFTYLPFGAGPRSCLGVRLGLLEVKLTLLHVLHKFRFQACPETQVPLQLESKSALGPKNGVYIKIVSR
In words: Inhibition of thromboxane synthase (human thrombocytes). The settings on record: for pIC50: human thrombocytes, arachidonic acid 3.5 μM, read-out: IC50-Value, inhibition of thromboxane synthase (TXB2 formation); for inhibitory action on thromboxane synthase: in words. Format: cell-based. On the procedure:
After addition of prostacyclin, human thrombocytes were isolated from platelet-rich plasma and suspended in Tyrode-Hepes buffer of pH 7.4 at 2×10^8 cells/ml. One ml aliquots of cells were incubated either with a compound according to the invention (0.1 to 100 μM) or a solvent (ethanol and/or dimethyl sulfoxide) at 37° C. for 3 minutes and thereafter with radioactively labelled arachidonic acid (3.5 μM) for 5 minutes. The reaction was stopped and the metabolites of arachidonic acid were extracted by adding methanol, chloroform and formic acid. After evaporation of the chloroform-containing layer to dryness under nitrogen, the residue obtained was resuspended in 50 μl chloroform and analyzed by thin layer chromatography. The distribution of the radioactivity of the different metabolites of arachidonic acid was measured using a TLC linear analyzer.

In assay [1] the target is T2, 5-lipoxygenase (Rattus norvegicus, UniProt P12527).
T2 construct: endogenous in cells; host or cells: RBL-1 cells (rat basophilic leukemia), intact
T2 sequence (P12527 1-673): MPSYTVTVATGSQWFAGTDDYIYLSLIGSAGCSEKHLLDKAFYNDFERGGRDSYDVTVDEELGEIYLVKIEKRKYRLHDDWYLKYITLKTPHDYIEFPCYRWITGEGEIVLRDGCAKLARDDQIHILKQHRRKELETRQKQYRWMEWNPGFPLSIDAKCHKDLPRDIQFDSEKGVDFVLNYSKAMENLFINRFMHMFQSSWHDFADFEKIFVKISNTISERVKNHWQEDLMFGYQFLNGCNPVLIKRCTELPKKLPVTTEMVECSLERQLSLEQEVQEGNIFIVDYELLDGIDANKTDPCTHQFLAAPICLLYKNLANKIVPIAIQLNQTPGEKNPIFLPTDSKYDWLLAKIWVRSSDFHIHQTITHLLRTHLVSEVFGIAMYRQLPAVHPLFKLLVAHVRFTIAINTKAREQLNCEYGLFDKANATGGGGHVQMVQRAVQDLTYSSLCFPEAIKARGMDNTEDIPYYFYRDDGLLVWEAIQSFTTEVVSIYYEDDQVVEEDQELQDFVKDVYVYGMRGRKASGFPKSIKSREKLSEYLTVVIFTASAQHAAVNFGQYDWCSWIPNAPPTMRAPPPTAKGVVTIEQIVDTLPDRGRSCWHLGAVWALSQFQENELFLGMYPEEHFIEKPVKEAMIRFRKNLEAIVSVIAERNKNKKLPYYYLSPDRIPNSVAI
In words: Inhibition of 5-lipoxygenase in RBL-1-cells. The assay is classed as cell-based. The settings on record: 20 μM [14C]-arachidonic acid, 20 μM A 23 187. On the procedure: To determine the inhibition of 5-lipoxygenase rat basophilic leukemia cells (RBL-1-cells) were cultured in vitro, harvested by centrifugation, washed with 50 mM potassium phosphate buffer of pH 7.4, and then suspended in this buffer at 1×10^7 cells/mi. To 1 ml each of this suspension there was added indomethacin (10 μM) and calcium chloride (2 mM), and then the mixture was incubated in the absence or presence of a compound according to the invention in a concentration range of from 0.1 μM to 100 μM for 3 minutes and thereafter with 20 μM of [^14 C]-arachidonic acid and 20 μM of the calcium ionophore A 23 187 for 10 minutes. The reaction was stopped by adding 20 μl of glacial acetic acid, and then the mixture was extracted with ethyl acetate to isolate the metabolites of arachidonic acid formed by the enzymatic action of 5-lipoxygenase. These were separated by thin layer chromatography using a solvent mixture known to be suitable for lipoxygenase products [c.f. Jakschik et al., Biochem. Biophys. Res. Commun. 102, 624 (1981)].
The distribution of the radioactivity among the various metabolites of arachidonic acid was measured using a TLC Linear Analyzer. By correlating the percentages of the amount of the products formed under the action of 5lipoxygenase (5-HETE, isomers of LTB4) in the absence as well as in the presence of different concentrations of compounds according to the invention, the IC50 -values, i.e. the concentrations which cause 50% inhibition of 5-lipoxygenase were determined graphically from semilogarithmic diagrams.

For assay [2], the target named is T2, 5-lipoxygenase. As to the kind of experiment: Inhibition of cell-free 5-lipoxygenase from RBL-1-cells. Format: biochemical. To be noted: 10,000×g supernatant of RBL cells; polarographic; arachidonic acid 75 μM. On the procedure:
Cell-free 5-lipoxygenase was polarographically measured from 10,000×gsupernatant of homogenized rat basophilic leucemia cells [M. Haurand and L. Flohe in Biol. Chem. Hoppe-Seyler 369, 133-142 (1988)]. After preincubation of the 10,000×g supernatant with arachidonic acid (75 μM), ATP (adenosine triphosphate; 4 μM), reduced glutathione (4 mM), and either a compound according to the invention (0.1 to 100 μM) or a solvent (ethanol and/or dimethyl sulfoxide) at 35° C. for 5 minutes, the lipoxygenase reaction was initiated by addition of calcium chloride (3 mM) and recorded simultaneously.
The activity of 5-lipoxygenase was determined from the difference of the pO2 -decrease before and after addition of calcium chloride. The evaluation included the initial rate of the reaction after the lag-phase as well as the duration of the lag-phase. In a concentration range of from 5 to 10 μM the test substances induced lag-phases of 15 seconds.

Assay [3] concerns 5-lipoxygenase. In words: 5-lipoxygenase inhibition in rat blood after oral administration (ex vivo iLTB4-formation). The settings on record: male Wistar rats, 21.5 mg/kg oral, one hour after administration, A 23 187 15 μg/ml. On the procedure:
The bioavailability of the compounds of formula I as 5-lipoxygenase inhibitors was characterized by means of an ex vivo biochemical assessment method described by Tateson et al. in Brit. J. Pharmacol. 94, 528 (1988). A compound of formula I was orally administered to male rats (Wistar strain) in a dose of 21.5 mg/kg. One hour after administration the rats after lethal CO2 -narcosis were bled by heart puncture with added heparin as an anticoagulant. Aliquots of the whole blood were incubated at 37° C. for 30 minutes in a water bath with calcium ionophore A 23 187 at an end concentration of 15 μg/ml. At the end of the incubation the samples were centrifuged, and the concentration of immunoreactive LTB4 (iLTB4) in aliquots of […] percent inhibition of ex vivo iLTB4 -formation in whole blood of rats treated with a compound according to the invention, rats orally treated with an appropriate vehicle solution were included in all experiments, and aliquots of their blood were run in parallel and were processed in the same way as described. The average iLTB4 -content of the plasma of the vehicle treated rats served as the 100% value. The activity in percent of the ex vivo iLTB4 -formation after oral administration of a compound according to the invention was calculated by dividing the average value of the iLTB4 -content in ng iLTB4 /ml of the group treated with a compound according to the invention by the average value of the iLTB4 -contents in ng iLTB4 /ml of the vehicle treated group and subsequent multiplication by the factor 100. The respective inhibition in percent was calculated by subtracting the activity in percent from 100.

The next assay concerns guinea pigs. In words: Allergen-induced bronchoconstriction in guinea pigs (Konzett-Roessler). To be noted: 60 minutes before ovalbumin. Format: in vivo, guinea pig. On the procedure:
The antiasthmatic effect of compounds according to the invention was tested in anesthetized and ventilated guinea pigs. To induce an asthmatic reaction, the animals were passively sensitized by a single intraperitoneal injection of anti-ovalbumin serum. After 48 hours an asthmatic reaction was elicited by intravenous challenge with 0.2 mg/kg of ovalbumin. The immediately resulting bronchoconstriction was measured as an increase in intratracheal pressure. Effects caused by histamine, serotonin and sympathic counterreaction were eliminated by intravenous pretreatment with 2.15 mg/kg of mepyramine, 46.4 μg/kg of propranolol, 4.64 mg/kg of atropine, and 1 mg/kg of methysergide, all administered 5 minutes before challenge. Compounds according to the invention were orally administered 60 minutes before the administration of ovalbumin. The following ED40-values for the inhibition of the bronchoconstriction elicited by ovalbumin, i.e. the effective doses causing a 40% average inhibition of the bronchoconstriction, were determined: […]

Assay [4] concerns 5-lipoxygenase. To be noted: in words, no test shown; cited from earlier work.

A word on the pIC50: it is the IC50 on a negative log10 scale, so that one unit is a factor of ten. Turning to `NC(=O)N(O)Cc1ccc(OCCn2ccnc2)cc1` [Comparison, N-hydroxy-N-[4-[2-(1H-imidazol-1-yl)ethoxy]phenylmethyl]urea, reference compound], the results for the pIC50 at thromboxane synthase, against 5-lipoxygenase [1] and on 5-lipoxygenase [2] were 5.40, less than 4.00 and less than 4.00, respectively. For the same molecule, the “Inhibition of ex vivo iLTB4-formation in whole blood” value (“Inhibition … in whole blood” below) in the assay on 5-lipoxygenase [3] is 42%.
For `NC(=O)N(O)Cc1ccc(Oc2ccc(-n3ccnc3)cc2)cc1` [Example 2, Imidazolium Chloride of N-hydroxy-N-[4-[4-(1H-imidazol-1-yl)phenoxy]phenylmethyl]urea], the “ED50-Value, inhibition of the bronchoconstriction elicited by ovalbumin” value in the assay on guinea pigs (oral, ED40) is 5.1 mg/kg. Besides, at 5-lipoxygenase [1], the pIC50 was 5.30. In the assay on 5-lipoxygenase [3] (21.5 mg/kg), the “Inhibition … in whole blood” value was found to be 95%.
With `NC(=O)N(O)Cc1ccc(Oc2ccc(-n3ccnc3)cc2)s1` [Example 4, N-hydroxy-N-[5-[4-(1H-imidazol-1-yl)phenoxy]thien-2-yl-methyl]urea], the ED40 in the assay with guinea pigs (Cavia porcellus, po, 1 h, read-out: ED40-Value, inhibition of the bronchoconstriction elicited by ovalbumin) came out at 6.3 mg/kg. For the same molecule, the pIC50 against 5-lipoxygenase [1] was 5.52. Also, the “Inhibition … in whole blood” value in the assay on 5-lipoxygenase [3] is reported as 93%.
`NC(=O)N(O)Cc1cccc(Oc2ccc(-n3ccnc3)cc2)c1` [Example 5, N-hydroxy-N-[3-[4-(1H-imidazol-1-yl)phenoxy]phenylmethyl]urea]: the figures for the pIC50 on thromboxane synthase, at 5-lipoxygenase [1] and against 5-lipoxygenase [2] were 5.60, 5.22 and 5.70, respectively. Besides, the “inhibitory action on thromboxane synthase” value (shortened to “inhibitory action”) against thromboxane synthase is reported as “same inhibitory potency as the hydrochloride of the imidazolylethoxybenzoic acid UK 37 248”.
For the molecule `NC(=O)N(O)Cc1ccc(Oc2ccc(-n3ccnc3)cc2)o1` [Example 6, N-hydroxy-N-[5-[4-(1H-imidazol-1-yl)phenoxy]furan-2-yl-methyl]urea], the “Inhibition … in whole blood” value in the assay with 5-lipoxygenase [3] turned out to be 84%.
For `NC(=O)N(O)Cc1ccc(Oc2cccc(-n3ccnc3)c2)cc1` [Example 10, N-hydroxy-N-[4-[3-(1H-imidazol-1-yl)phenoxy]phenylmethyl]urea], the pIC50 against 5-lipoxygenase [1] is 5.70.
For `Cl.O=C(O)c1ccc(OCCn2ccnc2)cc1` [UK 37 248, 4-[2-(1H-imidazol-1-yl)-ethoxy]benzoic acid hydrochloride, reference compound], the “inhibitory action” value at thromboxane synthase was “inhibits the activity of thromboxane synthase”. The “inhibits the activity of 5-lipoxygenase” value with 5-lipoxygenase [4] is “not the activity of 5-lipoxygenase”.
As to `CC(c1cc2ccccc2s1)N(O)C(N)=O` (centres unmarked) [Zileuton (A 64 077), reference compound], on thromboxane synthase, the pIC50 is less than 4.00 and the “inhibitory action” value is “did not exert an inhibitory action on thromboxane synthase”.
